This is an account of results in article PMC10045534, “Preparation and Evaluation of 6-Gingerol Derivatives as Novel Antioxidants and Antiplatelet Agents” (Antioxidants, 2023).

One data set is described as follows: PAMPA-BBB permeability. The format is in vitro ADME. As to conditions: after 4 h at 37 °C in PBS, pH 7.4, mean ± SEM, n = 3; for Papp at 4 h, 500 μM: PAMPA, read-out: PAMPA-BBB Pe. How it is done: (§1) Preparative purifications over RP-HPLC were performed on a Kinetex XB C18 (5 μm, 250 × 21.2 mm) column on an Armen Spot Prep II integrated HPLC purification system (Gilson, Middleton, WI, USA) with dual-wavelength detection, with an adequately chosen combination of acetonitrile–water, and a flow rate of 15 mL/min. The purity of the compounds obtained was determined by RP-HPLC analyses on a system of two Jasco PU 2080 pumps, a Jasco AS-2055 Plus intelligent sampler connected to a JASCO LC-Net II/ADC equipped with a Jasco MD-2010 Plus PDA detector (Jasco International Co. Ltd., Hachioji, Tokyo, Japan) utilizing a Kinetex C-18 (5 μm, 250 × 4.6 mm) column (Phenomenex Inc., Torrance, CA, USA) and applying a gradient of 30%–100% aqueous AcN in 30 min followed by 100% ACN for 10 min with a flow rate of 1 mL/min. Analysis of samples from the PAMPA and kinetic solubility assays was performed the same way, by using 3-point calibrations and integrating each compound at its UV absorption maximum.
Blood–brain barrier-specific (BBB) permeability measurements were carried out us- ing the PAMPA-BBB model. […] The solutions were sonicated for 10 min at room temperature. To prepare the artificial BBB-specific membrane, 16 mg BPLE were dissolved in 600 μL of n-dodecane:n-hexane (25:75). Each well of the donor plate (MultiscreenTM-IP, MAIPNTR10, pore size […], Merck kGaA) was coated with 5 μL lipid solution and fitted into the acceptor plate containing 300 μL PBS (pH 7.4) with 5% DMSO, and 150–150 μL of the PBS solutions (made from the DMSO stock solutions) were placed on the donor plate’s artificial membrane. The sandwich plate system was covered with a tissue of wet paper and a plastic lid to avoid evaporation of the solvent, and it was incubated at 37 °C for 4 h. In the end, the initial 500 μM solutions ( cD0 ), the donor ( cDt ) and acceptor solution ( cAt ) were analysed by HPLC-UV (see Section 2.1). BBB permeability was calculated using the effective permeability equation used for iso-pH conditions described by A. Avdeef as follows. (2) Pe=−2.303/A·t−τss·1/1+rv·lg−rv+1+rv/1−MR·cDt/cD0 (3) MR=1−cDt/cD0−VAcAt/VDcD0 where A is the filter area (0.3 cm^2), VD and VA are the volumes in the donor (0.15 cm^3) and acceptor phase (0.3 cm^3), t is the incubation time (s), τss is the time to reach steady state (s), cDt is the concentration of the compound in the donor phase at time point t (mol/cm^3), cD0 is the concentration of the compound in the donor phase at time point zero (mol/cm^3), cAt is the concentration of the compound in the acceptor phase at time point t (mol/cm^3), rv is the aqueous compartment volume ratio (VD/VA).

The target in another data set is T1, xanthine oxidase (XO) (Bos taurus, UniProt P80457).
T1 construct: purchased Sigma (Merck KGaA)
T1 sequence (P80457 2-1332 limits assumed): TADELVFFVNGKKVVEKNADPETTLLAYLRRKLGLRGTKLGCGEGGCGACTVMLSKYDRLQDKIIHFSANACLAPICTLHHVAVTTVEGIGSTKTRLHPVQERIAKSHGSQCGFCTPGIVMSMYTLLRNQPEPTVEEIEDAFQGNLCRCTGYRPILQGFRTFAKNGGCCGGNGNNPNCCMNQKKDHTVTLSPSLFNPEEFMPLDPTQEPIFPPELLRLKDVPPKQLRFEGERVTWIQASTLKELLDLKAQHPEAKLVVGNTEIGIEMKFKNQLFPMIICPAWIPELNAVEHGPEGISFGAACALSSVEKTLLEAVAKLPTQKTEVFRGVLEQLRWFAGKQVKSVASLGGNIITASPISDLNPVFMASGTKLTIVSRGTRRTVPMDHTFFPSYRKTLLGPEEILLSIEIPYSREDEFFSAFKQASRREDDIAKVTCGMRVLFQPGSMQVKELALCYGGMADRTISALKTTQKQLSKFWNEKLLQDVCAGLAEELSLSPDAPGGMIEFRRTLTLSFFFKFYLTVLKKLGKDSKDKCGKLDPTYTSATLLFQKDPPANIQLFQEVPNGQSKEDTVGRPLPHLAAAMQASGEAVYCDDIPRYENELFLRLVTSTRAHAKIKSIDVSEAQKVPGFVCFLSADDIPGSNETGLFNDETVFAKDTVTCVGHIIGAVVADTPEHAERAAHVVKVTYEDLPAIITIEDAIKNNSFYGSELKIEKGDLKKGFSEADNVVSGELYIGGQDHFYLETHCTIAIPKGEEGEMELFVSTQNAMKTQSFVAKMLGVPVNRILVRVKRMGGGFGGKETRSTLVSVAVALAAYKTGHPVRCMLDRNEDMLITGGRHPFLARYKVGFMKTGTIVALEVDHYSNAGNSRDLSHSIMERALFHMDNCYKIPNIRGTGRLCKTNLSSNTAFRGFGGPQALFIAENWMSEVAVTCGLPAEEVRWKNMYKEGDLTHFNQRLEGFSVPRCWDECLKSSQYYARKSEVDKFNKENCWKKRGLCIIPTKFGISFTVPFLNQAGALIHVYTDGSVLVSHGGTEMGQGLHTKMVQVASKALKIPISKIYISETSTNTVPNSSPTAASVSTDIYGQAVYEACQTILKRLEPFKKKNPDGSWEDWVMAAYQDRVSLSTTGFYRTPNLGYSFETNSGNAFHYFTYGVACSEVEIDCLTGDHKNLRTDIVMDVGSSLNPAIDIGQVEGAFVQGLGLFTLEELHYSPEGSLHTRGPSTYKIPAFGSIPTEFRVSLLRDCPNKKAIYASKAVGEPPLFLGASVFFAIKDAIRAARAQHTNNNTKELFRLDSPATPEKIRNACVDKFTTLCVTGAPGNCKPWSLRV
The experiment in a line: Xanthine oxidase inhibition, spectrophotometric. The format is biochemical. Conditions: read-out: XO Inhibition (%). How it is done: The xanthine oxidase (XO) inhibitory activity of the compounds was determined using continuous spectrophotometric rate based on a modified protocol of Sigma. […]. In a 96-well plate, the final reaction mixture consisted of 10 µL of sample (dissolved in DMSO, […] stock solution, 100 µM final), 100 µL of xanthine solution (0.15 mM, pH = 7.4), 140 µL of buffer (potassium phosphate, pH = 7.5) and 50 µL of XO (0.2 units/mL). When measuring the enzyme activity, control buffer was used in place of the sample. Allopurinol was applied as a control. The reaction was initiated by the automatic addition of 50 µL of XO solution. The absorbance of XO-induced uric acid production from xanthine was measured at 290 nm for 3 min in a 96-well plate on a BMG Labtech FluoStar Optima plate reader. The inhibitory percentage values were calculated by using Graph Pad Prism 8.0 (La Jolla, CA, USA).

The next data set concerns washed human platelets. The experiment in a line: Arachidonic acid-induced platelet aggregation (turbidimetric aggregometer). The format is cell-based. Conditions: for IC50: Platelet, 0.05 h, washed human platelets treated 3 min, then arachidonic acid (100 μM), mean ± SEM, n = 3, read-out: Antiplatelet IC50. As to the method:
All bioactivity data processing, including the calculation of inhibition percentage, mean and corresponding standard error of the mean (SEM), and IC50 values, was performed by GraphPad Prism 8.0 (La Jolla, CA, USA). IC50 values were calculated from the sigmoidal dose–response curves obtained by the log(inhibitor) vs. response and variable slope (DPPH assay) or the log(inhibitor) vs. normalised response and variable slope nonlinear regression model. On the results obtained, no statistical evaluation was performed; instead, differences greater than two-fold were considered relevant. Plotting of the antiplatelet and COX-1 inhibitory IC50 values and the linear regression of the data was performed by Microsoft Excel.
Human platelet suspension (3 × 10^8/mL in Tyrode’s buffer) was prepared as previously described. The protocol for this study was approved by the institutional review board of Kaohsiung Medical University Hospital (Kaohsiung City, Taiwan). Platelets pre-treated with DMSO (vehicle control) or test compounds were stimulated with arachidonic acid (AA), and platelet aggregation was measured using turbidimetric aggregometer (Chrono-Log Co., Havertown, PA, USA) at 37 °C under stirring conditions (1200 rpm).

The nature of data set [1]: Kinetic aqueous solubility in PBS pH 7.4. The format is physicochemical. As to conditions: after 2 h at 37 °C in PBS, 500 μM target concentration, mean ± SEM, n = 3; for solubility kinetic at 2 h: PBS (pH 7.4), 37 °C, pH 7.4, aqueous buffer, kinetic from dmso stock. How it is done:
as §1
In a 96-well polypropylene plate (Greiner Bio-One, Kremsmünster, Austria), 15 μL stock solutions were added to 285 μL PBS (pH 7.4) to make starting donor solution with 500 μM as target concentration. For each sample, 3 replicates were measured. The samples were covered and shaken at 37 °C, 300 rpm for 2 h (Heidolph Titramax 1000, Heidolph Instruments GmbH & Co. KG, Schwabach, Germany). After that, each sample was transferred into a filter plate (MSSBLPC, Multiscreen Filter plate, Merck kGaA) and filtered (Vaccum Manifold, Merck kGaA, Darmstadt, Germany). The filtrates were transferred into HPLC vials, and acetonitrile (AcN) was added to aliquot to avoid precipitation. The final solvent ratio was AcN:PBS (70:30). Filtrate concentration was determined by HPLC-UV (see Section 2.1) using 3-points calibration.

One may read the inhibition as the share of the control response that was lost under treatment. Usually IC50 stands for the midpoint of a concentration-inhibition curve. The kinetic solubility is solubility judged after dilution from a stock solution rather than from solid.

The structures appear in SMILES notation.

For the molecule `CCCCC[C@H](O)CC(=O)CCc1ccc(O)c(OC)c1` [Compound 1, (S)-5-hydroxy-1-(4-hydroxy-3-methoxyphenyl)decan-3-one], in “PAMPA-BBB permeability”, the Papp at 4 h, 500 μM was determined as 3.52 ± 0.24 ×10⁻⁶ cm/s; the “PAMPA-BBB MR (%)” value came to 23.8 ± 1.5%; the “PAMPA-BBB Pe” value is recorded as ≥ 25 ·10^−7 cm/s. Also, the inhibition at 100 µM at xanthine oxidase (XO) was below 5%. In addition, the “times weaker antiplatelet effect than the most promising compounds” value in the data set on washed human platelets (AA-induced platelet aggregation, ratio of IC50 values) is given as “up to 22 times”. The IC50 with washed human platelets is 45.9 ± 5.1 µM.

For `CCCCC/C=C/C(=O)CCc1ccc(O)c(OC)c1` [Compound 2, 6-shogaol], in the data set “PAMPA-BBB permeability”, the Papp at 4 h, 500 μM worked out at 3.17 ± 0.36 ×10⁻⁶ cm/s; the “PAMPA-BBB MR (%)” value turned out to be 20.9 ± 3.9%; the “PAMPA-BBB Pe” value is on record as ≥ 25 ·10^−7 cm/s. Also, the inhibition at 100 µM on xanthine oxidase (XO) is below 5%. For the same molecule, the solubility (kinetic) at 2 h in data set [1] was above 100 µM. Also, in the data set with washed human platelets, the IC50 turned out to be 2.8 ± 0.5 µM.

As for `CCCCCCCC(=O)CCc1ccc(O)c(OC)c1` [Compound 3, 4,5-dihydro-6-shogaol], in “PAMPA-BBB permeability”, the “PAMPA-BBB MR (%)” value was “-/11.0 ± 0.7%”. For the same molecule, the inhibition at 100 µM on xanthine oxidase (XO) was below 5%. In addition, in data set [1], the kinetic solubility at 2 h was determined as 45.2 ± 2.7 µM. The half-maximal inhibitory concentration (IC50) in the data set with washed human platelets is 2.1 ± 1 µM.

With `CCCCCCCC(CCc1ccc(O)c(OC)c1)=NO` [Compound 4, 1-(4-hydroxy-3-methoxyphenyl)decan-3-one oxime], the “PAMPA-BBB MR (%)” value in “PAMPA-BBB permeability” is on record as “-/4.0 ± 11.1%”. In addition, on xanthine oxidase (XO), the inhibition at 100 µM stood at 10.6 ± 2.3%. Further, the solubility (kinetic) at 2 h in data set [1] was 75.1 ± 7.3 µM. Besides, the IC50 in the data set on washed human platelets was found to be 5.2 ± 0.4 µM.

Regarding `CCCCC[C@H](O)C[C@H](O)CCc1ccc(O)c(OC)c1` [Compound 5, (3R,5S)-1-(4-hydroxy-3-methoxyphenyl)decane-3,5-diol], in the data set “PAMPA-BBB permeability”, the Papp at 4 h, 500 μM was 3.39 ×10⁻⁶ cm/s; the “PAMPA-BBB MR (%)” value amounted to 9.1 ± 7.6%; the “PAMPA-BBB Pe” value is given as ≥ 25 ·10^−7 cm/s. Moreover, the inhibition at 100 µM at xanthine oxidase (XO) was below 5%. For the same molecule, the IC50 with washed human platelets amounted to 51.7 ± 2.7 µM.

In the case of `CCCCC[C@H](O)C[C@@H](O)CCc1ccc(O)c(OC)c1` [Compound 6, (3S,5S)-1-(4-hydroxy-3-methoxyphenyl)decane-3,5-diol], in “PAMPA-BBB permeability”, the Papp at 4 h, 500 μM turned out to be 2.74 ± 0.16 ×10⁻⁶ cm/s; the “PAMPA-BBB MR (%)” value is listed as 18.5 ± 2.7%; the “PAMPA-BBB Pe” value was ≥ 25 ·10^−7 cm/s. At xanthine oxidase (XO), the inhibition at 100 µM is below 5%. Further, the IC50 with washed human platelets is 45.1 ± 6 µM.

Take `CCCCCc1cc(CCc2ccc(O)c(OC)c2)[nH]n1` [Compound 14, 2-methoxy-4-(2-(3-pentyl-1H-pyrazol-5-yl)ethyl)phenol]: in the data set “PAMPA-BBB permeability”, the Papp at 4 h, 500 μM is 1.58 ± 0.08 ×10⁻⁶ cm/s and the “PAMPA-BBB MR (%)” value is 33.6 ± 4.6%. Besides, the inhibition at 100 µM at xanthine oxidase (XO) amounted to 10.1 ± 1.65%. In addition, the solubility (kinetic) at 2 h in data set [1] came to 277 ± 5.5 µM. Besides, the IC50 in the data set on washed human platelets stood at 4.1 ± 1.2 µM.

For `CCCCCc1cc(CCc2ccc(O)cc2)[nH]n1` [Compound 15, 4-(2-(3-pentyl-1H-pyrazol-5-yl)ethyl)phenol], in the data set “PAMPA-BBB permeability”, the Papp at 4 h, 500 μM worked out at 2.07 ± 0.43 ×10⁻⁶ cm/s and the “PAMPA-BBB MR (%)” value is recorded as 3.1 ± 5.7%. Besides, at xanthine oxidase (XO), the inhibition at 100 µM was 12.3 ± 0.9%. In addition, the solubility (kinetic) at 2 h in data set [1] was 203 ± 5.5 µM. Moreover, the IC50 in the data set on washed human platelets is above 100 µM.

For the molecule `CCCCCc1cc(/C=C/c2ccc(O)cc2)[nH]n1` [Compound 16, (E)-4-(2-(3-pentyl-1H-pyrazol-5-yl)vinyl)phenol], the inhibition at 100 µM at xanthine oxidase (XO) was 16 ± 4.05%. Also, in data set [1], the solubility (kinetic) at 2 h turned out to be 89.4 ± 3.1 µM. Besides, in the data set on washed human platelets, the IC50 worked out at 3.5 ± 0.9 µM.

`CCCCCc1cc(/C=C/c2ccc(O)c(OC)c2)on1` [Compound 17, (E)-2-methoxy-4-(2-(3-pentylisoxazol-5-yl)vinyl)phenol]: at xanthine oxidase (XO), the inhibition at 100 µM is below 5%. For the same molecule, in data set [1], the kinetic solubility at 2 h worked out at 10.9 ± 2 µM. Also, the IC50 in the data set on washed human platelets was 3.1 ± 0.9 µM.

As to `CCCCCc1cc(/C=C/c2ccc(O)cc2)on1` [Compound 18, (E)-4-(2-(3-pentylisoxazol-5-yl)vinyl)phenol], the inhibition at 100 µM at xanthine oxidase (XO) is below 5%. Moreover, the “Kinetic Solubility” value in data set [1] is given as “< LOD”. Moreover, the half-maximal inhibitory concentration (IC50) with washed human platelets was found to be 32 ± 10.1 µM.

With `CCCCCCCNC(=O)CCc1ccc(O)c(OC)c1` [Compound 22], in “PAMPA-BBB permeability”, the Papp at 4 h, 500 μM amounted to 3.22 ± 0.34 ×10⁻⁶ cm/s; the “PAMPA-BBB MR (%)” value is 12.1 ± 5.2%; the “PAMPA-BBB Pe” value is reported as ≥ 25 ·10^−7 cm/s. Besides, on xanthine oxidase (XO), the inhibition at 100 µM was below 5%. In the data set with washed human platelets (AA-induced platelet aggregation), the “antiplatelet activity (in words)” value is listed as “only moderate activity”. Further, in the data set with washed human platelets, the IC50 was 35.9 ± 23.7 µM.
